In US8309140B2, “Effect of porcine sheath proteins on the regeneration activity of periodontal ligament” (priority 2005, dated 2012):
“Also recorded” adds a separate entry of the source.

Key:
[1] = system: human periodontal ligament (HPDL) cells; assay: ALP inducing activity of HPDL cells on cell culture system; format: cell-based; settings: for ALP activity of HPDL cells (porcine sheath proteins and synthetic peptides): 50 μg/ml protein or peptide, TGF-β1 50 ng/ml, BMP-2 500 ng/ml, 10 nM 1α-25dihydroxy-Vitamin D3
Text: (§1) Human periodontal ligament (HPDL) cells were obtained according to the method of Somerman et al., (1988) from healthy premolars which were extracted from the patients for orthodontic reasons. The cells were precultured for 4-6 passages with a-MEM medium to establish the primary cell line. The cells were maintained in the alpha modification of Eagle's medium (α-MEM; Life Technologies, Grand Island, N.Y., USA) containing 10% fetal bovine serum (FBS; Asahi Technoglass, Chiba, Japan) and 1% antibiotics (100 U/ml of Penicillin-G and 100 μg/ml of Streptomycin sulfate; Gibco BRL, Grand Island, N.Y., USA) at 37° C. in a humidified 5% CO2 atmosphere. The ST2 cells (Riken Cell Bank, Tsukuba, Japan), an osteoblast-like mouse bone marrow stromal cell line, were cultured under the same conditions.
HPDL cells were distributed in 96-well plates at a density of approximately 5×10^5 cells per a well and incubated for 24 h. The growth medium was then changed to contain 10 nM of 1α-25dihydroxy-Vitamin D3 (CALBIOCHEM, La Jolla, Calif.) and 50 μg/ml (final concentration) of fractionated enamel protein samples or synthesized peptides dissolved in ultrapure water. After 96 additional hours of incubation, the cells were washed once with PBS, and ALP activity was determined after a 10 min incubation at 37° C. in 10 mM p-nitrophenylphosphate (substrate) in 100 mM 2-amino-2-methyl-1,3-propanediol-HCl buffer (pH 10.0) containing 5 mM MgCl2. After adding 0.2 M NaOH, which stopped the reaction, the absorbance at 405 nm was read on a plate reader.
HPDL cells of approximately 5×10^5 cells per well were distributed in 96-well plates and incubated for 24 h. The growth medium was then changed to contain 10 nM of 1α-25dihydroxy-Vitamin D3 and 50 μg/ml (final concentration) of purified sheath protein or synthesized peptide. After 96 additional hours of incubation, ALP activity was determined using p-nitrophenylphosphate as a substrate.
The bioactivities of these synthetic peptides were tested their cytodifferentiation activity of HPDL cells and ST2 cells by determination of increasing ALP inducing activity on cell culture system. When these peptides applied in cell culture system, the concentration of their peptides was employed around 1 ng/ml. In the case of TGF-1, the concentration was 10 ng/ml.
Normal human periodontal ligament fibroblasts were maintained in an α-minimal essential medium (α-MEM) containing 10% fetal bovine serum, either with or without 10 nM 1α-25dihydroxy-vitamin D3 and 1% antibiotics (100 U/mL of penicillin G and 100 μg/mL of streptomycin sulfate) at 37° C. in a humidified atmosphere of air containing 5% CO2. Another cell line, ST2 cells, was obtained from an osteoblast-like mouse bone marrow stromal cell line. These cells were cultured in the same conditions as those described above.
The ALP inducing activities of synthetic peptides using the cell culture of HPDL cells and ST2 cells were examined. The HPDL cells were distributed in 96-well plates at a density of approximately 5×10^5 cells per well and incubated for 24 h. The medium was then changed to α-MEM containing 10 nM of 1α-25dihydroxy-vitamin D3 and either synthetic peptides or growth factors dissolved in ultra-pure water. After 96 h of incubation, the cells were washed once with phosphate-buffered saline, and 10 mM ρ-nitrophenylphosphate in 100 mM 2-amino-2-methel-1,3-propanediol-HCl buffer (pH 10.0) containing 5 mM MgCl2 was added. The ALP activity was determined after 10 min incubation at 37° C. and the absorbance at 405 nm was read using a plate reader, after adding 0.2 M NaOH to stop the reaction. […] When the synthetic peptides were applied in the cell culture system, their final concentrations were 25 or 50 μg/mL. A TGF-β1 receptor inhibitor (SB431542, 10 μM) was applied to the HPDL cell culture system to examine their influence relative to the ALP inducing activity of the synthetic peptides.

HPDL cells = assay: Mineralization activity of HPDL cells (alizarin red S staining, calcium content); format: cell-based, human; settings: 30 days culture; 1 μg/ml of samples; differentiation medium
Procedure: The HPDL cells were plated in 24-well plates at an initial density of 1×10^5 cells/well. After 24 h of incubation, the medium was replaced with growth medium containing 50 μM ascorbic acid, 10 mM β-glycerophosphate, and 10 nM 1α,25-dihydroxyvitamin D3 (differentiation medium) and 1 μg/ml of samples. The medium was changed every 72 h. The cells were maintained for 30 days and then the medium was discarded.
The compartments of cells were fixed in 100% methanol, stained with alizarin red S for 10 min, then washed with ultrapure water and photographed to examine the biomineralization activity. The staining solution was 1% alizarin red S (sodium alizarin sulfonate) (Sigma) dissolved in ultrapure water and adjusted to pH 6.4 with 0.1N ammonium hydroxide.
For measuring the calcium content, the compartments of cells were dissolved by 0.5N hydrochloric acid. The resulting solution was measured by a Calcium C-test kit and protocol (Wako Pure Chemical Industries Ltd, Osaka, Japan). The absorbance at 570 nm was read on a plate reader.
The HPDL cells were plated in 24-well plates at an initial density of 1×10^5 cells/well. After 24 h of incubation, the medium was replaced with growth medium containing 50 μM ascorbic acid, 10 mM β-glycerophosphate, and 10 nM 1α,25-dihydroxyvitamin D3 (differentiation medium) and 1 μg/ml of samples. The medium was changed every 72 h and the cells were maintained for 30 days. The biomineralization activity was examined by staining with alizarin red S and measuring calcium content.
The HPDL cells were plated in six-well plates at an initial density of 1×10^5 cells per well. […]
For Alizarin Red S staining, the compartments of 28 d cultured cells were fixed in 100% methanol, stained with Alizarin Red S for 10 min, then washed with ultra-pure water and photographed. […] The resulting solution was measured using a Calcium C-test kit and protocol. The absorbance at 570 nm was read with a plate reader. […]

[2] = system: human periodontal ligament (HPDL) cells; settings: cited from earlier work
[3] = system: buccal dehiscence type bone defects created along the roots of the canine mandibular premolars; assay: Cementum regeneration (CR) activity, eight-week histological analysis on buccal dehiscence model of dogs; format: in vivo, beagle dogs; settings: for CR (cementum regeneration) activity: histological analysis eight weeks after application, buccal dehiscence model of dogs
Procedure: Approximately 2-year-old male beagle dogs (approximate 15 kg) were used to detect the CR activities after the applications of several enamel protein samples. They had intact dentition and a healthy periodontium. The surgical preparation of buccal dehiscence type bone defects was carried out according to the modified method of Hammarström (1997) under general anesthesia induced and maintained by an endotracheal tube with 1.5-2.0% of halothane (Takeda Yakuhin Co. LTD, Osaka, Japan) in 100% oxygen, after premedicated with intramuscular injection of the mixture of Ketamine HCl (9.8 mg/kg: Sankyo Co. LTD, Tokyo, Japan) and Xylazine HCl (0.7 mg/kg: Bayer Co. LTD, Tokyo, Japan).
Contralateral buccal mucoperiosteal flaps were raised after an intracrevicular incision extending from the first mandibular premolar to the first mandibular molar. After the removing the buccal alveolar bone plate covering the mesial root of the second premolars, the exposed periodontal ligament and cementum of these areas were completely removed by means of a dental bur. At the apical end of the defect, a notch was created to identify the apical extension of the defect, when histological analyses. The distance between the cervical margin and the apical end of the defect was standardized at about 5 mm. The exposed root dentin surfaces were conditioned for 2 min with cotton pellets soaked in a 19% EDTA solution, and then carefully rinsed with sterile saline. Then 50 μg of each enamel protein sample in 100 μl of cold sterile distilled water was applied over the entire buccal surface area of the exposed roots. Finally, the mucoperiosteal flaps were repositioned to their level prior to surgery and sutured. Distilled water was used as a negative control and EMDOGAIN® (BIORA AB, Malmö, Sweden) served as a positive control.
After 8 weeks the dogs were terminated by anesthetization with sodium pentobarbital. Their heads were fixed by perfusion with 0.1 M sodium cacodylate buffer (pH 7.4) containing 4% paraformaldehyde and 1% glutaraldehyde. Tissue blocks, which included teeth, bone, and tissue were dissected and demineralized in 10% formic acid containing 0.06 M sodium citrate and 0.1 M citric acid. All specimens were dehydrated using a graded series of alcohols and then embedded in paraffin. Serial sections (5 μm thick) were made and stained with hematoxylin/eosin for examination by light microscopy.
The length and thickness of cementums regenerated after application of fractionated and purified enamel protein samples and EMD were measured on the computer monitor of histological results. The length of the regenerated cementum was straight distance between the apical end of the defect and coronal extention of the new cementum, as well as to the crest of the new alveolar bone. Also, the thickness of cementum was measured at coronal end, apical end and between them.
CR promoting activity of enamel proteins obtained at each extracted and purified step were examined by eight-week histological analysis of buccal dehiscence type bone defects created along the roots of canine mandible (FIG. 1).

ST2 cells = assay: ALP inducing activity of ST2 cells on cell culture system; format: cell-based, mouse; settings: 50 μg/ml protein or peptide; TGF-β1 50 ng/ml, BMP-2 500 ng/ml
Text: as §1
HPDL cells of approximately 5×10^5 cells per well were distributed in 96-well plates and incubated for 24 h. […] After 96 additional hours of incubation, ALP activity was determined using p-nitrophenylphosphate as a substrate. […]
The ALP inducing activities of synthetic peptides using the cell culture of HPDL cells and ST2 cells were examined. […] The ALP activity was determined after 10 min incubation at 37° C. and the absorbance at 405 nm was read using a plate reader, after adding 0.2 M NaOH to stop the reaction. […]

FADPQGPSLPGMDF (14 aa from 157 to 170 in sequence 11; listed as Homo sapiens) [H-3]
ALP activity of HPDL cells (human synthetic peptides, Example 3) ([1]; peptides around 1 ng/ml, TGF-β1 10 ng/ml): enhanced dose dependently | induction of mineralization of HPDL cells (Example 3) (HPDL cells): enhanced the induction of mineralization

QVEGPMVQQQVAPSEK (16 aa from 131 to 146 in sequence 10; listed as Sus scrofa) [P-1]
ALP inducing activity among porcine ESP synthetic peptides (previous study) [2]: highest ALP inducing activity among all the porcine ESP synthetic peptides tested

TGF-β1: recombinant growth factor, positive control [reference compound]
CR (cementum regeneration) activity [3]: shown to have the same activity | ALP inducing activity of HPDL cells when adding TGF-β1 receptor inhibitor SB431542 ([1]; 10 μM SB431542, 10 nM 1α-25dihydroxy-vitamin D3): inhibited distinctly | ALP activity of HPDL cells (porcine sheath proteins and synthetic peptides) ([1]; 96 h): further increased | concentration for increasing ALP inducing activity of HPDL cells, molar ([1]; calculated from molecular weight (TGF-β1 25 kDa; peptides average 1.5 kDa)): 0.4 nM/liter | apt concentration for increasing ALP inducing activity of HPDL cells ([1]; cell culture system): around 10 ng/ml | ALP inducing activity of HPDL cells (Example 4) ([1]; peptides 50 μg/mL, TGF-β1 1 ng/mL, BMP-2 1 μg/mL, 10 nM 1α-25dihydroxy-vitamin D3, 96 h): enhanced in a dose-dependent manner; also recorded: increased | ALP activity of ST2 cells (porcine sheath proteins and synthetic peptides) (ST2 cells): not stimulated

B1: 13 kDa sheath protein: sheath protein containing the 99 amino acids extending from M32 to Q130 (protein)
chain: MLSQYSRFGFGKSFNSLWMHGLLPPHSSFQWMRPREHETQQYEYSLPVHPPPLPSQPSLQPQQPGQKPFLQPTVVTSIQNPVQKGVPQPPIYQGHPPLQ
CR (cementum regeneration) activity [3]: do not exhibit any cementum regeneration activity | ALP activity of HPDL cells (porcine sheath proteins and synthetic peptides) ([1]; 96 h): not

B2: 15 kDa sheath protein: N-terminal cleavage product of sheathlin containing 130 amino acids, lacks C-terminal 40 amino acids of 17 kDa sheath protein (protein)
chain: VPAFPRQPGTPGVASLSLETMRQLGSLQGLNMLSQYSRFGFGKSFNSLWMHGLLPPHSSFQWMRPREHETQQYEYSLPVHPPPLPSQPSLQPQQPGQKPFLQPTVVTSIQNPVQKGVPQPPIYQGHPPLQ
thickness of regenerated cementum ([3]; eight weeks following application, measured at 3 points (apical, middle, coronal), beagle dogs): 8.13±2.06 μm | CR (cementum regeneration) activity [3]: scarce CR activity | ALP activity of HPDL cells (porcine sheath proteins and synthetic peptides) ([1]; 96 h): showed the increase of ALP inducing activity than that of 13 kDa sheath protein | ALP activity of HPDL cells (porcine sheath proteins and synthetic peptides) ([1]; 96 h, listed as 15-kDa sheath protein): not
